Measured values: ChEMBL document CHEMBL1201862, “PubChem BioAssay data set” (2004)
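In this assay, cells in 96-well plates receive the compound at five concentrations for 48 hours. Endpoints are linearly interpolated between the surrounding concentrations. The concentration for 50% growth inhibition is given as GI50.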 Activity calls are given as the source filed them. Rule as the data show it: active = GI50 up to about 1.1 µM and inactive = higher.

Key:
Experiment in all cases: NCI anticancer screen, dose series, 48 h
BT-549 = tested on: BT-549
HCT-116 = tested on: HCT-116
SR = tested on: SR
HOP-92 = tested on: HOP-92
NCI-H522 = tested on: NCI-H522
HL-60 = tested on: HL-60
UO-31 = tested on: UO-31
MOLT-4 = tested on: MOLT-4
EKVX = tested on: EKVX
HCT-15 = tested on: HCT-15
UACC-62 = tested on: UACC-62
SN12C = tested on: SN12C
HOP-62 = tested on: HOP-62
SNB-19 = tested on: SNB-19
U-251 = tested on: U-251
A498 = tested on: A498
PC-3 = tested on: PC-3
786-0 = tested on: 786-0
RPMI-8226 = tested on: RPMI-8226
UACC-257 = tested on: UACC-257
OVCAR-8 = tested on: OVCAR-8
MDA-MB-435 = tested on: MDA-MB-435
OVCAR-3 = tested on: OVCAR-3
SF-539 = tested on: SF-539
RXF 393 = tested on: RXF 393
T47D = tested on: T47D
SK-MEL-28 = tested on: SK-MEL-28
HCC 2998 = tested on: HCC 2998
IGROV-1 = tested on: IGROV-1
NCI/ADR-RES = tested on: NCI/ADR-RES
HT-29 = tested on: HT-29
COLO 205 = tested on: COLO 205
MDA-N = tested on: MDA-N
KM12 = tested on: KM12
ACHN = tested on: ACHN
NCI-H226 = tested on: NCI-H226
NCI-H460 = tested on: NCI-H460
LOX IMVI = tested on: LOX IMVI
K562 = tested on: K562
SK-MEL-5 = tested on: SK-MEL-5
M14 = tested on: M14
CAKI-1 = tested on: CAKI-1
CCRF-CEM = tested on: CCRF-CEM
Malme-3M = tested on: Malme-3M
Hs-578T = tested on: Hs-578T
MCF7 = tested on: MCF7
NCI-H23 = tested on: NCI-H23
SF-295 = tested on: SF-295
SF-268 = tested on: SF-268
SNB-75 = tested on: SNB-75
SW-620 = tested on: SW-620
TK-10 = tested on: TK-10
A549 = tested on: A549
OVCAR-4 = tested on: OVCAR-4
OVCAR-5 = tested on: OVCAR-5
DU-145 = tested on: DU-145
MDA-MB-231 = tested on: MDA-MB-231
SK-MEL-2 = tested on: SK-MEL-2
SK-OV-3 = tested on: SK-OV-3

Q: Which GI50 (BT-549) does the source give for `Cc1ccc(C)c2c1C/C(=C\c1ccccc1C(=O)O)C2=O` here?
A: > 100 µM (inactive)

Q: And the GI50 (HCT-116)?
A: > 100 µM (inactive)

Q: What about the GI50 (SR) of the same molecule?
A: 36.1 µM (inactive)

Q: And the GI50 (HOP-92)?
A: > 100 µM (inactive)

Q: What about the GI50 (NCI-H522) of the same molecule?
A: > 100 µM (inactive)

Q: And the GI50 (HL-60)?
A: 40.9 µM (inactive)

Q: And the GI50 (UO-31)?
A: > 100 µM (inactive)

Q: And the GI50 (MOLT-4)?
A: 86.9 µM (inactive)

Q: What about the GI50 (EKVX) of the same molecule?
A: 45.7 µM (inactive)

Q: And the GI50 (HCT-15)?
A: 77.4 µM

Q: What about the GI50 (UACC-62) of the same molecule?
A: > 100 µM (inactive)

Q: What about the GI50 (SN12C) of the same molecule?
A: > 100 µM (inactive)

Q: And the GI50 (HOP-62)?
A: > 100 µM (inactive)

Q: And the GI50 (SNB-19)?
A: 81.3 µM (inactive)

Q: What about the GI50 (U-251) of the same molecule?
A: 88.3 µM (inactive)

Q: What about the GI50 (A498) of the same molecule?
A: > 100 µM (inactive)

Q: What about the GI50 (PC-3) of the same molecule?
A: > 100 µM (inactive)

Q: What about the GI50 (786-0) of the same molecule?
A: > 100 µM (inactive)

Q: And the GI50 (RPMI-8226)?
A: 27.7 µM (inactive)

Q: What about the GI50 (UACC-257) of the same molecule?
A: > 100 µM (inactive)

Q: And the GI50 (OVCAR-8)?
A: > 100 µM (inactive)

Q: What about the GI50 (MDA-MB-435) of the same molecule?
A: 67.5 µM (inactive)

Q: What about the GI50 (OVCAR-3) of the same molecule?
A: 54.2 µM (inactive)

Q: And the GI50 (SF-539)?
A: 18.5 µM (inactive)

Q: And the GI50 (RXF 393)?
A: > 100 µM (inactive)

Q: What about the GI50 (T47D) of the same molecule?
A: > 100 µM (inactive)

Q: What about the GI50 (SK-MEL-28) of the same molecule?
A: > 100 µM (inactive)

Q: And the GI50 (HCC 2998)?
A: > 100 µM (inactive)

Q: What about the GI50 (IGROV-1) of the same molecule?
A: > 100 µM (inactive)

Q: And the GI50 (NCI/ADR-RES)?
A: > 100 µM (inactive)

Q: What about the GI50 (HT-29) of the same molecule?
A: > 100 µM (inactive)

Q: What about the GI50 (COLO 205) of the same molecule?
A: > 100 µM (inactive)

Q: And the GI50 (MDA-N)?
A: 87.3 µM (inactive)

Q: What about the GI50 (KM12) of the same molecule?
A: > 100 µM (inactive)

Q: What about the GI50 (ACHN) of the same molecule?
A: > 100 µM (inactive)

Q: And the GI50 (NCI-H226)?
A: 20.8 µM (inactive)

Q: And the GI50 (NCI-H460)?
A: > 100 µM (inactive)

Q: What about the GI50 (LOX IMVI) of the same molecule?
A: 54.2 µM (inactive)

Q: And the GI50 (K562)?
A: 87.7 µM (inactive)

Q: What about the GI50 (SK-MEL-5) of the same molecule?
A: 42.7 µM (inactive)

Q: What about the GI50 (M14) of the same molecule?
A: > 100 µM (inactive)

Q: And the GI50 (CAKI-1)?
A: > 100 µM (inactive)

Q: What about the GI50 (CCRF-CEM) of the same molecule?
A: 55.6 µM (inactive)

Q: What about the GI50 (Malme-3M) of the same molecule?
A: > 100 µM (inactive)

Q: What about the GI50 (Hs-578T) of the same molecule?
A: > 100 µM (inactive)

Q: What about the GI50 (MCF7) of the same molecule?
A: > 100 µM (inactive)

Q: What about the GI50 (NCI-H23) of the same molecule?
A: > 100 µM (inactive)

Q: What about the GI50 (SF-295) of the same molecule?
A: > 100 µM (inactive)

Q: What about the GI50 (SF-268) of the same molecule?
A: 89.3 µM (inactive)

Q: And the GI50 (SNB-75)?
A: > 100 µM (inactive)

Q: What about the GI50 (SW-620) of the same molecule?
A: > 100 µM (inactive)

Q: What about the GI50 (TK-10) of the same molecule?
A: > 100 µM (inactive)

Q: And the GI50 (A549)?
A: 90.8 µM (inactive)

Q: And the GI50 (OVCAR-4)?
A: 62.7 µM (inactive)

Q: And the GI50 (OVCAR-5)?
A: > 100 µM (inactive)

Q: And the GI50 (DU-145)?
A: 97.3 µM (inactive)

Q: Which results are given for `CN(CCNC(=O)c1nn(-c2ccccc2)c2c1Cc1ccccc1-2)CCNC(=O)c1nn(-c2ccccc2)c2c1Cc1ccccc1-2`?
A: GI50 (BT-549): 4.06 µM (inactive); GI50 (HCT-116): 1.65 µM (inactive); GI50 (HOP-92): 1.53 µM (inactive); GI50 (NCI-H522): 1.57 µM (inactive); GI50 (HL-60): 1.32 µM (inactive); GI50 (UO-31): 1.63 µM (inactive); GI50 (MOLT-4): 3.65 µM (inactive); GI50 (EKVX): 4.44 µM (inactive); GI50 (HCT-15): 1.88 µM; GI50 (UACC-62): 1.71 µM (inactive); GI50 (SN12C): 1.83 µM (inactive); GI50 (HOP-62): 1.79 µM (inactive); GI50 (SNB-19): 2.14 µM (inactive); GI50 (U-251): 1.71 µM (inactive); GI50 (A498): 1.84 µM (inactive); GI50 (PC-3): 2.19 µM (inactive); GI50 (786-0): 1.66 µM (inactive); GI50 (RPMI-8226): 4.01 µM (inactive); GI50 (UACC-257): 1.79 µM (inactive); GI50 (OVCAR-8): 1.68 µM (inactive); GI50 (MDA-MB-435): 1.61 µM (inactive); GI50 (OVCAR-3): 1.68 µM (inactive); GI50 (SF-539): 2.17 µM (inactive); GI50 (RXF 393): 1.57 µM (inactive); GI50 (T47D): 2.48 µM (inactive); GI50 (SK-MEL-28): 1.69 µM (inactive); GI50 (HCC 2998): 1.74 µM (inactive); GI50 (IGROV-1): 1.67 µM (inactive); GI50 (NCI/ADR-RES): 2.17 µM (inactive); GI50 (HT-29): 1.85 µM (inactive); GI50 (COLO 205): 1.79 µM (inactive); GI50 (MDA-N): 1.73 µM (inactive); GI50 (KM12): 1.79 µM (inactive); GI50 (ACHN): 1.74 µM (inactive); GI50 (MDA-MB-231): 1.82 µM (inactive); GI50 (NCI-H460): 1.69 µM (inactive); GI50 (LOX IMVI): 1.74 µM (inactive); GI50 (K562): 2.11 µM (inactive); GI50 (SK-MEL-5): 1.79 µM (inactive); GI50 (M14): 1.79 µM (inactive); GI50 (CAKI-1): 2.53 µM (inactive); GI50 (CCRF-CEM): 1.77 µM (inactive); GI50 (Malme-3M): 1.82 µM (inactive); GI50 (Hs-578T): 1.87 µM (inactive); GI50 (MCF7): 1.64 µM (inactive); GI50 (NCI-H23): 1.87 µM (inactive); GI50 (SF-295): 1.81 µM (inactive); GI50 (SF-268): 2.02 µM (inactive); GI50 (SNB-75): 1.69 µM (inactive); GI50 (SW-620): 1.48 µM (inactive); GI50 (TK-10): 2.04 µM (inactive); GI50 (A549): 2.06 µM (inactive); GI50 (OVCAR-4): 1.82 µM (inactive); GI50 (SK-MEL-2): 1.86 µM (inactive); GI50 (SK-OV-3): 2 µM (inactive); GI50 (OVCAR-5): 2.37 µM (inactive); GI50 (DU-145): 2.59 µM (inactive)
